Test results published in patent publication US20220095615A1, “NEMATODE DETERRENT COMPOSITIONS” (SALK INSTITUTE FOR BIOLOGICAL STUDIES, priority 2018, published 2022).
Structures can show the parent of a compound that is named as a salt.

What was measured:
C. elegans [1] = experiment: Chemotaxis assay for volatile components; type: in vivo, Caenorhabditis elegans; conditions: Benzaldehyde 1:200, 2-nonanone undiluted, 60 min, FIG. 8D
Experimental: Chemotaxis assays were performed on 2% agar square (10 cm) plates containing 5 mM potassium phosphate (pH 6), 1 mM CaCl2, and 1 mM MgSO4. Animals were washed three times in M9 and once in chemotaxis buffer (5 mM potassium phosphate (pH 6), 1 mM CaCl2, and 1 mM MgSO4) and then placed in the middle of the plate (FIG. 8c). Two spots of the collected nematode secretions and two control M9 spots (all 1 μl) were added to opposite sides of the plate, generating gradients of any volatile components in the nematode secretions. Animals were allowed to explore these gradients for 1 h, after which they were counted and the chemotaxis index calculated (FIG. 8d). Benzaldehyde (1:200) and 2-nonanone (undiluted) were used as control attractants and repellents, respectively^25. Nine or more assays were performed on at least three different days. Two-tailed unpaired t-tests were used to compare C. elegans responses to different secretions, and the Bonferroni correction was used to adjust for multiple comparisons.

C. elegans [2] = conditions: literature reference; cited from earlier work
C. elegans [3] = experiment: Egg-laying assay; type: in vivo, Caenorhabditis elegans; conditions: predator cue with sertraline (1 mM) for 30 min, egg-laying monitored 60 min after removal, FIG. 4f
Experimental: Synchronized Day 1 adults were treated with M9 control buffer or concentrated predator cue for 30 min. These animals were transferred to a 2-day lawn of 100 μl OP50 bacteria (OD600=0.5) and allowed to lay eggs. Eggs were counted at the time intervals shown. In each condition and genotype, at least 35 animals were analyzed. Average number of eggs and s.e.m. are presented with two-tailed unpaired t-tests with Bonferroni correction for statistical analysis. To test the effect of sulfolipids on egg-laying behavior, these compounds were dissolved in DMSO and further diluted in M9 to obtain the concentrations indicated. Sertraline effects were analyzed by exposing animals to predator cue with or without sertraline (1 mM) for 30 min.

C. elegans [4] = experiment: Single animal avoidance assay (avoidance index); type: in vivo, Caenorhabditis elegans; conditions: for activity of synthetic sulfolipids in the avoidance assay: synthetic compounds, FIG. 10a
Experimental: Adult C. elegans were exposed to a small volume of a test compound (0.05 μl) near the head of the animal. Upon sensing a repellent, animals initiate a reversal followed by an omega bend. Positive responses to a test compound were scored only if they occurred within 4 s. Results are shown as the avoidance index, which is the ratio of number of positive responses to the total number of trials. Each animal is tested thrice and data is presented as average of the animals tested on at least 3 days (FIGS. 1-4 and FIGS. 8-13). For Data in FIG. 18b, animals were pre-treated with various drugs at 100 μM for 30 min and then their responses to predator cue were analyzed. Each assay was performed in triplicate (5 animals per condition) and on at least 3 different days […]. For Data shown in FIG. 4, animals were pre-treated with 1 mM Sertraline (Sigma) or M9 control for 3 min before being tested for their responses in the avoidance assay. We also performed additional controls to test whether an animal's response to the three repellent trials were independent.
Two-tailed unpaired t-tests were used to compare different strains, genotypes, and conditions, and the Bonferroni correction was used to adjust for multiple comparisons. Avoidance indices of all strains tested and controls are shown in Supplementary Table S7 of Liu et al., Nature Communications 9: 1128 (2018)).
Adult nematodes were exposed to a small volume of a test compound (0.05 μl) near the head of the animal. Upon sensing a repellent, animals initiate a reversal followed by an omega bend. Positive responses to a test compound were scored only if they occurred within 4 s. Results are shown as the avoidance index, which is the ratio of number of positive responses to the total number of trials. Each animal is tested thrice and data is presented as average of the animals tested on at least 3 days.

O=Cc1ccccc1 [Benzaldehyde]
chemotaxis response to control attractant and repellent (C. elegans [1]): strong responses

CCCCCCCCCCCCOS(=O)(=O)[O-].[Na+] [SDS, sodium dodecyl sulfate]
C. elegans avoidance cue potency (C. elegans [2]): potent

CCCCCCCC(C)=O [Sulfolipid 2-nonanone, 2-nonanone]
chemotaxis response to control attractant and repellent (C. elegans [1]): strong responses

CN[C@H]1CC[C@@H](c2ccc(Cl)c(Cl)c2)c2ccccc21 [sertraline]
sertraline effect on predator cue-induced egg-laying response (C. elegans [3]): reduced the longer-lasting egg-laying response | duration of the drug effects (decay of the sertraline effect) (C. elegans [4]; predator cue, FIG. 13C legend): about 30 minutes | concentration dependence of suppression of avoidance behavior (C. elegans [4]; predator cue, FIG. 13b): dependent on drug concentration | duration of suppression of avoidance after the drug was removed (C. elegans [4]; predator cue, FIG. 13c): at least 30 min | sertraline modulation of avoidance in eat-4 mutants (C. elegans [4]; predator cue, eat-4 (vesicular glutamate transporter) mutants, FIG. 4c): significant sertraline-induced modulation of avoidance behavior | sertraline effect on behavior of tax-4 or ocr-2 mutants (C. elegans [4]; predator cue, tax-4 or ocr-2 mutants, FIG. 4b): no detectable effect | sertraline attenuation in unc-25 mutants (C. elegans [4]; predator cue, unc-25 (glutamic acid decarboxylase) mutants, FIG. 4c): defective in sertraline attenuation | sertraline effect on avoidance to predator cue (C. elegans [4]; wild-type, pre-treated with sertraline (1 mM), FIG. 4a): attenuated avoidance | sertraline effect on avoidance responses to fructose (C. elegans [4]; wild-type, pre-treated with sertraline, FIG. 4a): attenuated avoidance responses | sertraline effect on avoidance to purified sulfolipids (C. elegans [4]; wild-type, pre-treated with sertraline, FIG. 13a): attenuated avoidance

CC(C)CCC(CCCCCCCCCO)OS(=O)(=O)O (stereo not drawn) [sufal #1, 14-hydroxy-2-methyltetradecan-5-yl Hydrogen Sulfate]
activity of synthetic sulfolipids in the avoidance assay (C. elegans [4]): accounted for most of the isolated activity

CC(C)CCCC(CCCCCCCCO)OS(=O)(=O)O (stereo not drawn) [sufal #2, 14-hydroxy-2-methyltetradecan-6-yl Hydrogen Sulfate]
activity of synthetic sulfolipids in the avoidance assay (C. elegans [4]): accounted for most of the isolated activity
